Here are results for seven molecules from ChEMBL document CHEMBL1201862, “PubChem BioAssay data set” (2004).

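Growth conditions: 96-well plates. Treatment: test compound, 48 hours, 5 concentrations. Analysis: linear interpolation between bracketing concentrations; unreached endpoints set to highest concentration. GI50: concentration for 50% inhibition of growth.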 Active and inactive are the calls of the source. Rule as the data show it: active = GI50 up to about 1.1 µM and inactive = higher. A value given as a limit tells only on which side of the number the result lay.

Among the test systems are T47D; A498; SNB-75; KM12; SK-OV-3; PC-3; DU-145; NCI-H460; M14; SR; RPMI-8226; HCT-15; COLO 205; ACHN; HL-60; SF-268; SNB-19; UO-31; UACC-62; OVCAR-4.
Test in all cases: NCI anticancer screen, dose series, 48 h

In the case of `N#Cc1nc(C#N)n(S(=O)(=O)c2ccccc2)c1NS(=O)(=O)c1ccccc1`, the GI50 is > 100 µM (inactive) with T47D; > 100 µM (inactive) in the assay on A498; > 65.3 µM (inactive) with SNB-75; > 100 µM (inactive) with KM12; > 100 µM (inactive) in the assay with SK-OV-3; > 100 µM (inactive) in the assay on PC-3. For the same molecule, the GI50 in the assay on DU-145 is > 100 µM (inactive); in the assay with NCI-H460 it was > 100 µM (inactive); in the assay on M14, > 100 µM (inactive); with SR, > 38.1 µM (inactive); with RPMI-8226 it was > 100 µM (inactive); with HCT-15, greater than 100 µM. The GI50 is > 100 µM (inactive) in the assay on COLO 205; > 100 µM (inactive) in the assay on ACHN; > 100 µM (inactive) in the assay with HL-60; > 100 µM (inactive) in the assay on SF-268; > 100 µM (inactive) with SNB-19; 27 µM (inactive) in the assay with UO-31. The GI50 with UACC-62 and in the assay on OVCAR-4 was > 100 µM (inactive) each time.

As for `COC(=O)c1ccccc1C1CN=NC12Cc1ccc(C)cc1C2=O` (stereo not given), the GI50 was 29.4 µM (inactive) in the assay with T47D; > 100 µM (inactive) with A498; 90.6 µM (inactive) in the assay on SNB-75; 37.9 µM (inactive) in the assay with KM12; > 100 µM (inactive) with SK-OV-3; 37.1 µM (inactive) in the assay on PC-3. Besides, the GI50 in the assay with DU-145 was > 100 µM (inactive); with NCI-H460, > 100 µM (inactive); with M14, 65.2 µM (inactive); in the assay on SR it was 63.8 µM (inactive); in the assay with RPMI-8226 it was 49.7 µM (inactive); in the assay on HCT-15 it was 56.1 µM. The GI50 with COLO 205 was 60.8 µM (inactive); with ACHN, > 100 µM (inactive); with HL-60, 33.3 µM (inactive); in the assay on SF-268, > 100 µM (inactive); in the assay with SNB-19, 70.3 µM (inactive); with UO-31, 34.7 µM (inactive). Also, the GI50 was 68.7 µM (inactive) with UACC-62 and 32.8 µM (inactive) with OVCAR-4.

In the case of `COc1cc(OC)c(OC)cc1/C=C/c1cc[n+](C)c2ccccc12`, the GI50 was 33.4 µM (inactive) in the assay on T47D; > 100 µM (inactive) in the assay on A498; 47.4 µM (inactive) in the assay with SNB-75; 19.8 µM (inactive) in the assay with KM12; 52.2 µM (inactive) in the assay on SK-OV-3; 20.7 µM (inactive) in the assay on PC-3. The GI50 in the assay with DU-145 was 86.9 µM (inactive); in the assay on NCI-H460, 33.2 µM (inactive); in the assay with M14, 60.8 µM (inactive); with SR, 17.8 µM (inactive); with RPMI-8226 it was 21.2 µM (inactive); in the assay with HCT-15, greater than 100 µM. Also, the GI50 is 5.96 µM (inactive) with COLO 205; > 100 µM (inactive) with ACHN; 14 µM (inactive) with HL-60; 51.2 µM (inactive) in the assay with SF-268; 8.45 µM (inactive) with SNB-19; > 100 µM (inactive) with UO-31. The GI50 with OVCAR-4 was 46.9 µM (inactive).

Regarding `CC(=O)NC1C(OCc2ccccc2)OC(CO)C(O)C1OC(C)C(=O)NC(C(=O)N[C@@H](CCC(=O)NCCNCCNc1c2ccccc2nc2cccc([N+](=O)[O-])c12)C(N)=O)C(C)C` (stereo not given in full), the GI50 was 68.2 µM (inactive) in the assay on T47D; 41.8 µM (inactive) in the assay with A498; 77.4 µM (inactive) with SNB-75; 26.5 µM (inactive) in the assay with KM12; > 100 µM (inactive) with SK-OV-3; 28.4 µM (inactive) in the assay with PC-3. The GI50 in the assay with DU-145 was 33 µM (inactive); with NCI-H460 it was 14.7 µM (inactive); in the assay with M14, 15.4 µM (inactive); in the assay with SR, 1.78 µM (inactive); in the assay on RPMI-8226 it was 17.9 µM (inactive); in the assay on HCT-15 it was 24.7 µM. The GI50 was 20.1 µM (inactive) in the assay on COLO 205; 16.4 µM (inactive) with ACHN; 10.1 µM (inactive) in the assay on HL-60; 36.1 µM (inactive) in the assay on SF-268; 64.1 µM (inactive) in the assay on SNB-19; 21.7 µM (inactive) with UO-31. In the assay on OVCAR-4, the GI50 is 29.2 µM (inactive).

As for `COC(=O)C1=C(C(=O)OC)C2(/N=C(\Nc3ccccc3)c3ccccc3)N(c3ccc(OC)cc3)CC(c3ccccc3)N2O1` (stereo not given), the GI50 with T47D was > 100 µM (inactive); with A498, > 100 µM (inactive); in the assay on SNB-75, 32.3 µM (inactive); in the assay on KM12, > 100 µM (inactive); with SK-OV-3, > 100 µM (inactive); with PC-3 it was > 100 µM (inactive). Further, the GI50 in the assay on DU-145 is > 100 µM (inactive); with NCI-H460 it was > 100 µM (inactive); with M14 it was > 100 µM (inactive); in the assay on SR, > 100 µM (inactive); in the assay on HCT-15, greater than 100 µM; in the assay on COLO 205, > 100 µM (inactive). Also, the GI50 with ACHN, in the assay on HL-60, in the assay on SF-268, with SNB-19, in the assay with UO-31 and in the assay on UACC-62 was > 100 µM (inactive) throughout. Further, the GI50 in the assay on OVCAR-4 was > 100 µM (inactive).

`Cc1cccc(/C=N/NC(=S)NC2CCCCC2)n1`: the GI50 is 2.58 µM (inactive) in the assay with T47D; 28.1 µM (inactive) with A498; 45.3 µM (inactive) in the assay on SNB-75; 31.1 µM (inactive) in the assay on KM12; 23.1 µM (inactive) in the assay on SK-OV-3; 6.73 µM (inactive) with PC-3. Also, the GI50 in the assay with DU-145 is 29.6 µM (inactive); in the assay with NCI-H460, 13.5 µM (inactive); in the assay on M14, 23 µM (inactive); in the assay on SR, 4.76 µM (inactive); in the assay on RPMI-8226 it was 6.92 µM (inactive); in the assay with HCT-15 it was 5.26 µM. The GI50 is 8.85 µM (inactive) in the assay with COLO 205; 25.8 µM (inactive) in the assay on ACHN; 2.86 µM (inactive) with HL-60; 32 µM (inactive) with SF-268; 34.8 µM (inactive) in the assay with SNB-19; 18.7 µM (inactive) in the assay with UO-31. Further, the GI50 in the assay on UACC-62 is 21.3 µM (inactive); in the assay on OVCAR-4, 17.3 µM (inactive).

On to `CC(=O)OCCn1cnc2c(NCC=C(C)C)ncnc21`, for which the GI50 with T47D, in the assay with A498, in the assay on SNB-75, in the assay with KM12, in the assay with SK-OV-3 and in the assay on PC-3 was > 100 µM (inactive) each time. For the same molecule, the GI50 with DU-145, in the assay on NCI-H460, with M14, in the assay on SR, in the assay on RPMI-8226 and in the assay with COLO 205 was > 100 µM (inactive) in each case. Further, the GI50 with ACHN, in the assay on HL-60, with SF-268, with SNB-19, with UO-31 and in the assay with OVCAR-4 was > 100 µM (inactive) each time.
